Assay results published in patent US20240307382A1, “MODULATORS OF THE INTEGRATED STRESS PATHWAY” (Calico Life Sciences LLC, priority 2017, published 2024).
pEC50: −log10 of the molar value.

tested on: HEK293T cells carrying the ATF4 luciferase reporter; experiment: ATF4-Luc assay (ATF4 luciferase reporter, tunicamycin-treated cells); format: cell-based; settings: Homo sapiens, HEK-293T, 1 μg/mL tunicamycin, 7 hours
Outline: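 A stable HEK293T reporter line was made by placing the full-length human ATF4 5′-UTR ahead of a firefly luciferase sequence without its start methionine, delivered by retroviral transduction and puromycin selection. Cells were seeded at 30,000 per well in polylysine-coated 384-well plates, exposed next day to 1 μg/mL tunicamycin plus compound for 7 hours, and luminescence was read with One Glo.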

`N#Cc1ccnc(C(=O)NC23CCC(NC(=O)COc4ccc(Cl)c(Cl)c4)(CC2)[C@@H](O)C3)c1` [Compound 1032, 4-cyano-N-{(3S)-4-[2-(3,4-dichlorophenoxy)acetamido]-3-hydroxybicyclo[2.2.2]octan-1-yl}pyridine-2-carboxamide] and `N#Cc1ccc(C(=O)NC23CCC(NC(=O)COc4ccc(Cl)c(Cl)c4)(CC2)[C@@H](O)C3)nc1` [Compound 1033, 5-cyano-N-{(3S)-4-[2-(3,4-dichlorophenoxy)acetamido]-3-hydroxybicyclo[2.2.2]octan-1-yl}pyridine-2-carboxamide] cannot be ordered by pEC50: greater than 7.30 for the first, greater than 7.30 for the second.

`Cc1nc(C(=O)NC23CCC(NC(=O)COc4ccc(Cl)c(Cl)c4)(CC2)[C@@H](O)C3)ccc1C#N` [Compound 1034, 5-cyano-N-{(3S)-4-[2-(3,4-dichlorophenoxy)acetamido]-3-hydroxybicyclo[2.2.2]octan-1-yl}-6-methylpyridine-2-carboxamide] and `O=C(COc1ccc(Cl)c(Cl)c1)NC12CCC(NC(=O)c3coc(C(F)F)n3)(CC1)C[C@@H]2O` [Compound 1052, N-{(3S)-4-[2-(3,4-dichlorophenoxy)acetamido]-3-hydroxybicyclo[2.2.2]octan-1-yl}-2-(difluoromethyl)-1,3-oxazole-4-carboxamide] cannot be ordered by pEC50: greater than 7.30 for the first, greater than 7.30 for the second.

`O=C(COc1ccc(Cl)c(F)c1)NC12CCC(NC(=O)c3ncc(-c4ccccc4)s3)(CC1)C[C@@H]2O` [Compound 1035, N-{(3S)-4-[2-(4-chloro-3-fluorophenoxy)acetamido]-3-hydroxybicyclo[2.2.2]octan-1-yl}-5-phenyl-1,3-thiazole-2-carboxamide] and `O=C(COc1ccc(Cl)c(F)c1)NC12CCC(NC(=O)c3nc(-c4ccccc4)cs3)(CC1)C[C@@H]2O` [Compound 1038, N-{(3S)-4-[2-(4-chloro-3-fluorophenoxy)acetamido]-3-hydroxybicyclo[2.2.2]octan-1-yl}-4-phenyl-1,3-thiazole-2-carboxamide] cannot be ordered by pEC50: greater than 7.30 for the first, greater than 7.30 for the second.

`O=C(COc1ccc(Cl)c(F)c1)NC12CCC(NC(=O)c3coc(-c4ccccc4)n3)(CC1)C[C@@H]2O` [Compound 1036, N-{(3S)-4-[2-(4-chloro-3-fluorophenoxy)acetamido]-3-hydroxybicyclo[2.2.2]octan-1-yl}-2-phenyl-1,3-oxazole-4-carboxamide] and `O=C(COc1ccc(Cl)c(F)c1)NC12CCC(NC(=O)c3cc(-c4ccccc4)on3)(CC1)C[C@@H]2O` [Compound 1039, N-{(3S)-4-[2-(4-chloro-3-fluorophenoxy)acetamido]-3-hydroxybicyclo[2.2.2]octan-1-yl}-5-phenyl-1,2-oxazole-3-carboxamide] cannot be ordered by pEC50: greater than 7.30 for the first, greater than 7.30 for the second.

`Cn1nc(C(=O)NC23CCC(NC(=O)COc4ccc(Cl)c(F)c4)(CC2)[C@@H](O)C3)cc1-c1ccccc1` [Compound 1037, N-{(3S)-4-[2-(4-chloro-3-fluorophenoxy)acetamido]-3-hydroxybicyclo[2.2.2]octan-1-yl}-1-methyl-5-phenyl-1H-pyrazole-3-carboxamide] and `O=C(COc1ccc(Cl)c(F)c1)NC12CCC(NC(=O)c3csc(-c4ccccc4)n3)(CC1)C[C@@H]2O` [Compound 1040, N-{(3S)-4-[2-(4-chloro-3-fluorophenoxy)acetamido]-3-hydroxybicyclo[2.2.2]octan-1-yl}-2-phenyl-1,3-thiazole-4-carboxamide] cannot be ordered by pEC50: greater than 7.30 for the first, greater than 7.30 for the second.

`O=C(COc1ccc(Cl)c(Cl)c1)NC12CCC(NC(=O)c3cnc(-c4ccccc4)o3)(CC1)C[C@@H]2O` [Compound 1041, N-{(3S)-4-[2-(3,4-dichlorophenoxy)acetamido]-3-hydroxybicyclo[2.2.2]octan-1-yl}-2-phenyl-1,3-oxazole-5-carboxamide] and `O=C(NC12CCC(NC(=O)c3cnc(-c4ccccc4)o3)(CC1)[C@@H](O)C2)c1cnc(-c2ccccc2)o1` [Compound 1053, N,N′-[(2S)-2-hydroxybicyclo[2.2.2]octane-1,4-diyl]bis(2-phenyl-1,3-oxazole-5-carboxamide)] cannot be ordered by pEC50: greater than 7.30 for the first, greater than 7.30 for the second.

First: O=C(COc1ccc(Cl)c(F)c1)NC12CC(NC(=O)c3cnc(-c4cccnc4)o3)(C1)C2 [Compound 1042, N-{3-[2-(4-chloro-3-fluorophenoxy)acetamido]bicyclo[1.1.1]pentan-1-yl}-2-(pyridin-3-yl)-1,3-oxazole-5-carboxamide]
Second: O=C(COc1ccc(Cl)c(F)c1)NC12CC(NC(=O)c3cnc(C(F)(F)F)o3)(C1)C2 [Compound 1044, N-{3-[2-(4-chloro-3-fluorophenoxy)acetamido]bicyclo[1.1.1]pentan-1-yl}-2-(trifluoromethyl)-1,3-oxazole-5-carboxamide]
The pEC50 of the first is higher: greater than 7.30 for the first, 6.60 to 7.30 for the second.

First: O=C(COc1ccc(Cl)c(Cl)c1)NC12CC(NC(=O)c3cnc(C(F)(F)F)o3)(C1)C2 [Compound 1043, N-{3-[2-(3,4-dichlorophenoxy)acetamido]bicyclo[1.1.1]pentan-1-yl}-2-(trifluoromethyl)-1,3-oxazole-5-carboxamide]
Second: O=C(COc1ccc(Cl)c(F)c1)NC12CC(Nc3cncc(C(F)(F)F)c3)(C1)C2 [Compound 1045, 2-(4-chloro-3-fluorophenoxy)-N-(3-{[5-(trifluoromethyl)pyridin-3-yl]amino}bicyclo[1.1.1]pentan-1-yl)acetamide]
The pEC50 of the first is higher: 6.60 to 7.30 for the first, less than 5.70 for the second. The first is the more potent here.

First: Cn1nnc(-c2ccc(NC34CC(NC(=O)COc5ccc(Cl)c(F)c5)(C3)C4)cn2)n1 [Compound 1046, 2-(4-chloro-3-fluorophenoxy)-N-(3-{[6-(2-methyl-2H-tetrazol-5-yl)pyridin-3-yl]amino}bicyclo[1.1.1]pentan-1-yl)acetamide]
Second: COCC(=O)Nc1cc(F)c(F)cc1C(=O)NC12CC(NC(=O)COc3ccc(Cl)c(F)c3)(C1)C2 [Compound 1061, N-{3-[2-(4-chloro-3-fluorophenoxy)acetamido]bicyclo[1.1.1]pentan-1-yl}-4,5-difluoro-2-(2-methoxyacetamido)benzamide]
The pEC50 of the first is lower: less than 5.70 for the first, 6.00 to 6.60 for the second. The second is the more potent here.

`O=C(COc1ccc(Cl)c(F)c1)NC12CCC(NC(=O)c3ccc4c(c3)OC(F)(F)O4)(CC1)NC2=O` [Compound 1047, N-{4-[2-(4-chloro-3-fluorophenoxy)acetamido]-3-oxo-2-azabicyclo[2.2.2]octan-1-yl}-2,2-difluoro-2H-1,3-benzodioxole-5-carboxamide] and `O=C(COc1ccc(Cl)c(F)c1)NC12CCC(NC(=O)c3cc(C(F)F)no3)(CC1)NC2=O` [Compound 1050, N-{4-[2-(4-chloro-3-fluorophenoxy)acetamido]-3-oxo-2-azabicyclo[2.2.2]octan-1-yl}-3-(difluoromethyl)-1,2-oxazole-5-carboxamide] cannot be ordered by pEC50: less than 5.70 for the first, less than 5.70 for the second.

`O=C(COc1ccc(Cl)c(Cl)c1)NC12CCC(NC(=O)c3cc(C(F)F)no3)(CC1)NC2=O` [Compound 1048, N-{4-[2-(3,4-dichlorophenoxy)acetamido]-3-oxo-2-azabicyclo[2.2.2]octan-1-yl}-3-(difluoromethyl)-1,2-oxazole-5-carboxamide] and `Cc1cc(C(=O)NC23CCC(NC(=O)COc4ccc(Cl)c(Cl)c4)(CC2)C(=O)N3)on1` [Compound 1049, N-{4-[2-(3,4-dichlorophenoxy)acetamido]-3-oxo-2-azabicyclo[2.2.2]octan-1-yl}-3-methyl-1,2-oxazole-5-carboxamide] cannot be ordered by pEC50: less than 5.70 for the first, less than 5.70 for the second.

First: Cc1cc(C(=O)NC23CCC(NC(=O)COc4ccc(Cl)c(F)c4)(CC2)C(=O)N3)on1 [Compound 1051, N-{4-[2-(4-chloro-3-fluorophenoxy)acetamido]-3-oxo-2-azabicyclo[2.2.2]octan-1-yl}-3-methyl-1,2-oxazole-5-carboxamide]
Second: Cc1nc(C(=O)NC23CCC(NC(=O)COc4ccc(Cl)c(F)c4)(CC2)[C@H](O)C3)n[nH]1 [Compound 1062, N-{(3R)-4-[2-(4-chloro-3-fluorophenoxy)acetamido]-3-hydroxybicyclo[2.2.2]octan-1-yl}-5-methyl-1H-1,2,4-triazole-3-carboxamide]
The pEC50 of the first is lower: less than 5.70 for the first, 6.00 to 6.60 for the second.

Compared with `O=C(NC12CCC(NC(=O)c3cnc(-c4ccccc4)o3)(CC1)C2)c1cnc(-c2ccccc2)o1` [Compound 1055, N,N′-(bicyclo[2.2.1]heptane-1,4-diyl)bis(2-phenyl-1,3-oxazole-5-carboxamide)], `O=C(NC12CC(NC(=O)c3cnc(-c4ccccc4)o3)(C1)C2)c1cnc(-c2ccccc2)o1` [Compound 1057, N,N′-(bicyclo[1.1.1]pentane-1,3-diyl)bis(2-phenyl-1,3-oxazole-5-carboxamide)] is higher in pEC50: 6.60 to 7.30 for the first, greater than 7.30 for the second.

First: Cc1cnc(C(=O)NC23CC(NC(=O)c4cnc(-c5ccccc5)o4)(C2)C3)cn1 [Compound 1056, 5-methyl-N-{3-[(2-phenyl-1,3-oxazole-5-carbonyl)amino]bicyclo[1.1.1]pentan-1-yl}pyrazine-2-carboxamide]
Second: O=C(NC12CC(NC(=O)c3cnc(-c4ccccc4)o3)(C1)C2)c1cnc(C(F)F)cn1 [Compound 1058, 5-(difluoromethyl)-N-{3-[(2-phenyl-1,3-oxazole-5-carbonyl)amino]bicyclo[1.1.1]pentan-1-yl}pyrazine-2-carboxamide]
The pEC50 of the first is lower: 6.00 to 6.60 for the first, 6.60 to 7.30 for the second. The second is the more potent here.

First: O=C(CO)Nc1cc(F)c(F)cc1C(=O)NC12CC(NC(=O)COc3ccc(Cl)c(F)c3)(C1)C2 [Compound 1059, N-{3-[2-(4-chloro-3-fluorophenoxy)acetamido]bicyclo[1.1.1]pentan-1-yl}-4,5-difluoro-2-(2-hydroxyacetamido)benzamide]
Second: O=C(COc1ccc(Cl)c(F)c1)NC12CC(NC(=O)c3cc(F)c(F)cc3NCCO)(C1)C2 [Compound 1060, N-{3-[2-(4-chloro-3-fluorophenoxy)acetamido]bicyclo[1.1.1]pentan-1-yl}-4,5-difluoro-2-[(2-hydroxyethyl)amino]benzamide]
The pEC50 of the first is higher: 6.60 to 7.30 for the first, 6.00 to 6.60 for the second. The first is the more potent here.

In the case of `Cc1csc(C(=O)NC23CCC(NC(=O)COc4ccc(F)c(Cl)c4)(CC2)[C@@H](O)C3)n1` [Compound 1063, N-{(3S)-4-[2-(3-chloro-4-fluorophenoxy)acetamido]-3-hydroxybicyclo[2.2.2]octan-1-yl}-4-methyl-1,3-thiazole-2-carboxamide], the pEC50 was 6.00 to 6.60.
